Tests used:
Assay type in all cases: in vivo
[1] = test system: ragweed (common ragweed, Ambrosia artemisiifolia); experiment: Test C preemergence, ragweed; conditions: 0 is no effect, 100 is complete control
In short: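 Herbicidal effect was estimated visually on a 0–100 scale 10 or 12 days after spraying. Formulation: non-phytotoxic solvent mixture with surfactant. Timing: directed soil spray after sowing, or postemergence on seedlings bearing one or two leaves.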

soybean (Glycine max) [2] = experiment: Test C postemergence, soybean; conditions: for Soybean plant response rating: visual injury, 0 to 100 scale (0 no effect, 100 complete control)
[3] = test system: ryegrass, Italian (Italian ryegrass, Lolium multiflorum); experiment: Test C postemergence, Italian ryegrass; conditions: for Ryegrass, Italian plant response rating: visual injury, 0 to 100 scale (0 no effect, 100 complete control)
In short: (§1)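 Pre: soil sprayed at seeding. Post: seedlings treated at 1–2 leaves (2–10 cm). Vehicle non-phytotoxic solvent mix with surfactant; loam–sand medium; greenhouse; visual injury read at 10 or 12 days, scale 0–100.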

corn (Zea mays) = experiment: Test C postemergence, corn; conditions: for Corn plant response rating: visual injury, 0 to 100 scale (0 no effect, 100 complete control)
[4] = test system: foxtail, giant (giant foxtail, Setaria faberi); experiment: Test C preemergence, giant foxtail; conditions: 0 is no effect, 100 is complete control
In short: as §1

[5] = test system: wheat (Triticum aestivum); experiment: Test C preemergence, wheat; conditions: 0 is no effect, 100 is complete control
soybean (Glycine max) [6] = experiment: Test C preemergence, soybean; conditions: 0 is no effect, 100 is complete control
In short: as §1

[7] = 125 g ai/ha Postemergence, 0 is no effect, 100 is complete control

SMILES: Cc1cc(C)c(N2CC/C(=N\O)C2=O)cc1NS(=O)(=O)C(F)(F)F [Compound 10, 1,1,1-trifluoro-N-[5-[3-(hydroxyimino)-2-oxo-1-pyrrolidinyl]-2,4-dimethylphenyl]methanesulfonamide]
- Plant response rating (0 to 100 scale), Ragweed ([1]; 31 g ai/ha Preemergence): 0
- Plant response rating (0 to 100 scale), Ragweed ([1]; 125 g ai/ha Preemergence): 30
- Soybean plant response rating (soybean (Glycine max) [2]; 31 g ai/ha Postemergence): 80
- Plant response rating (0 to 100 scale), Soybean (soybean (Glycine max) [2]; [7]): 80
- Ryegrass, Italian plant response rating ([3]; 31 g ai/ha Postemergence): 80
- Plant response rating (0 to 100 scale), Ryegrass, Italian [3, 7]: 80
- Corn plant response rating (corn (Zea mays); 31 g ai/ha Postemergence): 90
- Plant response rating (0 to 100 scale), Corn (corn (Zea mays); [7]): 90
- Plant response rating (0 to 100 scale), Foxtail, Giant ([4]; 31 g ai/ha Preemergence): 90
- Plant response rating (0 to 100 scale), Foxtail, Giant ([4]; 125 g ai/ha Preemergence): 100
- Plant response rating (0 to 100 scale), Wheat ([5]; 31 g ai/ha Preemergence): 90
- Plant response rating (0 to 100 scale), Wheat ([5]; 125 g ai/ha Preemergence): 100
- Plant response rating (0 to 100 scale), Soybean (soybean (Glycine max) [6]; 31 g ai/ha Preemergence): 60
- Plant response rating (0 to 100 scale), Soybean (soybean (Glycine max) [6]; 125 g ai/ha Preemergence): 70

SMILES: Cc1c(NS(=O)(=O)C(F)(F)F)cc(N2CCC(OC3CC3)C2=O)c(C)c1C (stereo not drawn) [Compound 47]
- Plant response rating (0 to 100 scale), Ragweed ([1]; 31 g ai/ha Preemergence): 70
- Plant response rating (0 to 100 scale), Ragweed ([1]; 125 g ai/ha Preemergence): 100
- Soybean plant response rating (soybean (Glycine max) [2]; 31 g ai/ha Postemergence): 70
- Soybean plant response rating (soybean (Glycine max) [2]; 125 g ai/ha Postemergence): 90
- Ryegrass, Italian plant response rating ([3]; 31 g ai/ha Postemergence): 50
- Ryegrass, Italian plant response rating ([3]; 125 g ai/ha Postemergence): 90
- Corn plant response rating (corn (Zea mays); 31 g ai/ha Postemergence): 70
- Corn plant response rating (corn (Zea mays); 125 g ai/ha Postemergence): 90
- Plant response rating (0 to 100 scale), Foxtail, Giant ([4]; 31 g ai/ha Preemergence): 100
- Plant response rating (0 to 100 scale), Foxtail, Giant ([4]; 125 g ai/ha Preemergence): 100
- Plant response rating (0 to 100 scale), Wheat ([5]; 31 g ai/ha Preemergence): 90
- Plant response rating (0 to 100 scale), Wheat ([5]; 125 g ai/ha Preemergence): 100
- Plant response rating (0 to 100 scale), Soybean (soybean (Glycine max) [6]; 31 g ai/ha Preemergence): 50
- Plant response rating (0 to 100 scale), Soybean (soybean (Glycine max) [6]; 125 g ai/ha Preemergence): 90

SMILES: Cc1c(N2CCC(OC3CC3)C2=O)cc(N(COC(=O)C(C)(C)C)S(=O)(=O)C(F)(F)F)c(C)c1C (stereo not drawn) [Compound 49]
- Plant response rating (0 to 100 scale), Ragweed ([1]; 31 g ai/ha Preemergence): 100
- Plant response rating (0 to 100 scale), Ragweed ([1]; 125 g ai/ha Preemergence): 100
- Soybean plant response rating (soybean (Glycine max) [2]; 31 g ai/ha Postemergence): 60
- Soybean plant response rating (soybean (Glycine max) [2]; 125 g ai/ha Postemergence): 80
- Ryegrass, Italian plant response rating ([3]; 31 g ai/ha Postemergence): 50
- Ryegrass, Italian plant response rating ([3]; 125 g ai/ha Postemergence): 90
- Corn plant response rating (corn (Zea mays); 31 g ai/ha Postemergence): 50
- Corn plant response rating (corn (Zea mays); 125 g ai/ha Postemergence): 100
- Plant response rating (0 to 100 scale), Foxtail, Giant ([4]; 31 g ai/ha Preemergence): 20
- Plant response rating (0 to 100 scale), Foxtail, Giant ([4]; 125 g ai/ha Preemergence): 90
- Plant response rating (0 to 100 scale), Wheat ([5]; 31 g ai/ha Preemergence): 30
- Plant response rating (0 to 100 scale), Wheat ([5]; 125 g ai/ha Preemergence): 90
- Plant response rating (0 to 100 scale), Soybean (soybean (Glycine max) [6]; 31 g ai/ha Preemergence): 0
- Plant response rating (0 to 100 scale), Soybean (soybean (Glycine max) [6]; 125 g ai/ha Preemergence): 40

SMILES: Cc1c(N2CCC(OC3CC3)C2=O)cc(N(C(=O)OCC(C)C)S(=O)(=O)C(F)(F)F)c(C)c1C (stereo not drawn) [Compound 50]
- Plant response rating (0 to 100 scale), Ragweed ([1]; 31 g ai/ha Preemergence): 30
- Plant response rating (0 to 100 scale), Ragweed ([1]; 125 g ai/ha Preemergence): 90
- Soybean plant response rating (soybean (Glycine max) [2]; 31 g ai/ha Postemergence): 60
- Soybean plant response rating (soybean (Glycine max) [2]; 125 g ai/ha Postemergence): 80
- Ryegrass, Italian plant response rating ([3]; 31 g ai/ha Postemergence): 50
- Ryegrass, Italian plant response rating ([3]; 125 g ai/ha Postemergence): 90
- Corn plant response rating (corn (Zea mays); 31 g ai/ha Postemergence): 30
- Corn plant response rating (corn (Zea mays); 125 g ai/ha Postemergence): 90
- Plant response rating (0 to 100 scale), Foxtail, Giant ([4]; 31 g ai/ha Preemergence): 50
- Plant response rating (0 to 100 scale), Foxtail, Giant ([4]; 125 g ai/ha Preemergence): 100
- Plant response rating (0 to 100 scale), Wheat ([5]; 31 g ai/ha Preemergence): 30
- Plant response rating (0 to 100 scale), Wheat ([5]; 125 g ai/ha Preemergence): 100
- Plant response rating (0 to 100 scale), Soybean (soybean (Glycine max) [6]; 31 g ai/ha Preemergence): 30
- Plant response rating (0 to 100 scale), Soybean (soybean (Glycine max) [6]; 125 g ai/ha Preemergence): 60

SMILES: Cc1c(N2CCC(OC3CCC3)C2=O)cc(N(COC(=O)C(C)(C)C)S(=O)(=O)C(F)(F)F)c(C)c1C (stereo not drawn) [Compound 51]
- Plant response rating (0 to 100 scale), Ragweed ([1]; 31 g ai/ha Preemergence): 0
- Plant response rating (0 to 100 scale), Ragweed ([1]; 125 g ai/ha Preemergence): 70
- Soybean plant response rating (soybean (Glycine max) [2]; 31 g ai/ha Postemergence): 30
- Soybean plant response rating (soybean (Glycine max) [2]; 125 g ai/ha Postemergence): 60
- Ryegrass, Italian plant response rating ([3]; 31 g ai/ha Postemergence): 20
- Ryegrass, Italian plant response rating ([3]; 125 g ai/ha Postemergence): 50
- Corn plant response rating (corn (Zea mays); 31 g ai/ha Postemergence): 0
- Corn plant response rating (corn (Zea mays); 125 g ai/ha Postemergence): 60
- Plant response rating (0 to 100 scale), Foxtail, Giant ([4]; 31 g ai/ha Preemergence): 10
- Plant response rating (0 to 100 scale), Foxtail, Giant ([4]; 125 g ai/ha Preemergence): 90
- Plant response rating (0 to 100 scale), Wheat ([5]; 31 g ai/ha Preemergence): 10
- Plant response rating (0 to 100 scale), Wheat ([5]; 125 g ai/ha Preemergence): 60
- Plant response rating (0 to 100 scale), Soybean (soybean (Glycine max) [6]; 31 g ai/ha Preemergence): 0
- Plant response rating (0 to 100 scale), Soybean (soybean (Glycine max) [6]; 125 g ai/ha Preemergence): 30

SMILES: Cc1cc(C)c(N2CCC(OCC3CCC3(F)F)C2=O)cc1NS(=O)(=O)C(F)(F)F (stereo not drawn) [Compound 52]
- Plant response rating (0 to 100 scale), Ragweed ([1]; 31 g ai/ha Preemergence): 0
- Plant response rating (0 to 100 scale), Ragweed ([1]; 125 g ai/ha Preemergence): 30
- Soybean plant response rating (soybean (Glycine max) [2]; 31 g ai/ha Postemergence): 60
- Soybean plant response rating (soybean (Glycine max) [2]; 125 g ai/ha Postemergence): 70
- Ryegrass, Italian plant response rating ([3]; 31 g ai/ha Postemergence): 40
- Ryegrass, Italian plant response rating ([3]; 125 g ai/ha Postemergence): 100
- Corn plant response rating (corn (Zea mays); 31 g ai/ha Postemergence): 0
- Corn plant response rating (corn (Zea mays); 125 g ai/ha Postemergence): 60
- Plant response rating (0 to 100 scale), Foxtail, Giant ([4]; 31 g ai/ha Preemergence): 90
- Plant response rating (0 to 100 scale), Foxtail, Giant ([4]; 125 g ai/ha Preemergence): 100
- Plant response rating (0 to 100 scale), Wheat ([5]; 31 g ai/ha Preemergence): 90
- Plant response rating (0 to 100 scale), Wheat ([5]; 125 g ai/ha Preemergence): 100
- Plant response rating (0 to 100 scale), Soybean (soybean (Glycine max) [6]; 31 g ai/ha Preemergence): 30
- Plant response rating (0 to 100 scale), Soybean (soybean (Glycine max) [6]; 125 g ai/ha Preemergence): 50

— US20240158348A1, “HERBICIDAL CYCLIC AMIDES N-SUBSTITUTED WITH A HALOALKYLSULFONYLANILIDE GROUP” (FMC Corporation, priority 2021, published 2024)
